Test system: neurones de cortex
Assay: Survival of cortex neurons in primary culture
Type: cell-based, rat
Conditions: 10⁻⁵M; after 10 days of culture; versus control cells; p < 0,02, Student t (figure 3)
Source text: Les dérivés de l'invention ont été testés sur des neurones du système nerveux central en culture primaire. Les cultures sont préparées à partir de cerveaux d'embryons de rats. Les neurones proviennent de l'une des trois zones cérébrales suivantes: le cortex à partir d'embryons de 14 jours, l'hippocampe et le septum à partir d'embryons de 18 jours. Les cellules sont ensemencées à faible densité (10⁵ cellules/lamelle) sur des lamelles prétraitées avec de la poly-L-lysine. Les cellules sont maintenues dans un milieu de culture chimiquement défini. Les dérivés testés sont ajoutés le premier jour de la mise en culture des cellules à des doses variant de 10⁻⁹ M à 10⁻⁴ M. Le changement de milieu se fait tous les quatre jours avec addition des composés à tester.
On suit la survie des neurones en culture à l'aide d'un microscope en contraste de phase. De manière générale, les cellules témoins dégénèrent après 11 jours de culture alors que le nombre de cellules survivantes est significativement élevé dans les cultures traitées avec les dérivés de l'invention.
A titre d'exemple, l'effet du composé A₁, sur la survie des neurones de cortex est représenté sur la figure 3. Ce graphique représente le nombre de neurones survivants après 10 jours de culture.

## CC1=C(CCCCCCCCCCCO)C(C)(C)CCC1 [composé A₁]
  nombre de neurones survivants: significativement augmenté
